10 molecules from publication PMC5967881 (Journal of medicinal chemistry, 2017) can be followed below.

For assay [1], the system named is A/California/07/2009 (H1N1) virus. The experiment in a line: microbe, parasite or virus in culture. Type of assay: cell-based, influenza A virus. To be noted: for activity at 10 µM: read-out: % plaque formation at 10 μM drug concentration against A/California/07/2009 (H1N1); for EC50: read-out: EC50 against A/California/07/2009 (H1N1).
Assay [2] concerns the target wild-type AM2 channel (AM2-WT) (Influenza A virus, UniProt P0DOF5). The experiment in a line: biochemical. To be noted: pH 5.5, read-out: Electrophysiological TEVC assay (% WT channel inhibition), 100 μM, two-minute time point, pH 5.5, Xenopus laevis oocytes.

Read-outs that look alike come from different tables or passages of the source.

The inhibition is the percentage by which the read-out fell short of the control.

Sequence of wild-type AM2 channel (AM2-WT) (P0DOF5 whole entry): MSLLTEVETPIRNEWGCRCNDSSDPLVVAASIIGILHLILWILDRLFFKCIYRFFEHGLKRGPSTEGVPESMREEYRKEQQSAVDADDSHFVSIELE

On to `c1ccc(-c2cc(CNC34CC5CC(CC(C5)C3)C4)no2)cc1` [9a, N-[(5-phenyl-1,2-oxazol-3-yl)methyl]adamantan-1-amine], for which, in assay [1] (Influenza A virus, H1N1, MDCK), the activity at 10 µM is under 20% and the EC50 lay within 100 to 1200 nM. In addition, the inhibition at 100 µM in assay [2] was at most 30%.
`Clc1ccc(-c2cc(CNC34CC5CC(CC(C5)C3)C4)no2)s1` [9q, N-((5-(5-chlorothiophen-2-yl)isoxazol-3-yl)methyl)adamantan-1-amine]: in assay [1], the “% plaque formation at 10 μM drug concentration against A/California/07/2009 (H1N1)” value worked out at 0% and the EC50 came to 100 ± 30 nM. Besides, the activity at 10 µM in assay [1] (Influenza A virus, H1N1, MDCK) is under 20%.
`COc1sccc1-c1cc(CNC23CC4CC(CC(C4)C2)C3)no1` [9t, N-((5-(2-methoxythiophen-3-yl)isoxazol-3-yl)methyl)adamantan-1-amine]: in assay [1] (Influenza A virus, H1N1, MDCK), the activity at 10 µM was under 20%. Further, in assay [2], the inhibition at 100 µM was at most 30%.
As to `CSc1ccccc1-c1cc(CNC23CC4CC(CC(O)(C4)C2)C3)no1` [9f, 3-[({5-[2-(methylsulfanyl)phenyl]-1,2-oxazol-3-yl}methyl)amino]adamantan-1-ol], in assay [1] (Influenza A virus, H1N1, MDCK), the activity at 10 µM is under 20% and the EC50 lay in the range of 100 to 1200 nM. In addition, the inhibition at 100 µM in assay [2] was at most 30%.
On to `Oc1ccccc1-c1cc(CNC23CC4CC(CC(C4)C2)C3)no1` [9h, 2-(3-(((adamantan-1-yl)amino)methyl)isoxazol-5-yl)phenol], for which, in assay [1] (Influenza A virus, H1N1, MDCK), the activity at 10 µM was under 20% and the EC50 is 100 to 1200 nM. For the same molecule, the inhibition at 100 µM in assay [2] is at most 30%.
As to “N-((5-(2-(methylsulfonyl)phenyl)isoxazol-3-yl)methyl)adamantan-1-amine [9m]”, the “% plaque formation at 10 μM drug concentration against A/California/07/2009 (H1N1)” value in assay [1] came to 57.1 ± 2.4%.
With `OC12CC3CC(C1)CC(NCc1cc(-c4cc(Cl)sc4Cl)on1)(C3)C2` [9v, 3-({[5-(2,5-dichlorothiophen-3-yl)-1,2-oxazol-3-yl]methyl}amino)adamantan-1-ol], the activity at 10 µM in assay [1] (Influenza A virus, H1N1, MDCK) was under 20%.
For the molecule `OC12CC3CC(C1)CC(NCc1cc(-c4ccccc4Cl)on1)(C3)C2` [9d, 3-({[5-(2-chlorophenyl)-1,2-oxazol-3-yl]methyl}amino)adamantan-1-ol], in assay [1] (Influenza A virus, H1N1, MDCK), the activity at 10 µM is under 20% and the EC50 was 100 to 1200 nM. Also, in assay [2], the inhibition at 100 µM was at most 30%.
For the molecule `Clc1cc(-c2cc(CNC34CC5CC(CC(C5)C3)C4)no2)cs1` [9r, N-((5-(5-chlorothiophen-3-yl)isoxazol-3-yl)methyl)adamantan-1-amine], the activity at 10 µM in assay [1] (Influenza A virus, H1N1, MDCK) is under 20%.
On the same count and under the same terms, with `Clc1cc(-c2cc(CNC34CC5CC(CC(C5)C3)C4)no2)c(Cl)s1` [9u, N-((5-(2,5-dichlorothiophen-3-yl)isoxazol-3-yl)methyl)adamantan-1-amine] the figure was under 20%.
